What was measured:
SaM-1 cells [1] = assay: Gene expression during osteoblast differentiation of SaM-1 cells, real-time RT-PCR; format: cell-based, human; settings: various concentrations, up to 28 days, relative to beta actin
Excerpt: The medium was replaced every 2 to 3 days. Cells were recovered at the fourth day, seventh day, fourteenth day, and twenty-eighth day until the final differentiation (calcification) on the twenty-eighth day. Total RNA was extracted using an RNeasy Mini Kit (QIAGEN, Product No. 74104) and cDNA synthesized using an Ommniscript RTKit (QIAGEN, Product No. 205110). The cDNA was mixed with SYBR Green PCR Master Mix (Applied Biosystems, Product No. 4367659) and primer oligos suitable for amplifying various types of genes. Variation in the gene expression of the alkaline phosphatase which is a marker for osteoblast differentiation, CDP and osteocalcin, and beta actin which is known as a universally expressed housekeeping gene was examined by real-time RT-PCR using a GeneAmp 5700 Sequence Detection System (Applied Biosystems) or ABI PRISM 7000 Sequence Detection System (Applied Biosystems). Oligos complementary to the various genes were designed by general methods and synthesized by Sigma Genosys. The results are shown by relative values with respect to the amount of expression of beta actin. […] The value for the relative amount of expression is calculated using the formula 2^−(ΔΔCT of target gene−ΔΔCT of beta actin).

HOS cells = assay: Gene expression in HOS cells transfected with pSPORT6-CDP, real-time RT-PCR; format: cell-based, human; settings: HOS cells with CDP introduced, various concentrations, three days, relative to GAPDH
Protocol: After three days, cells were recovered, and total RNA was extracted using an RNeasy Mini Kit (QIAGEN, Product No. 74104). Reverse transcription reactions were performed by oligo dT primers using SuperScriptlll RT (Invitrogen, 18080-044) and the amount of expression of various genes was determined using real-time RT-PCR (Applied Biosystems, GeneAmp7000). The amount of gene expression was corrected using GAPDH which is a housekeeping gene and shown as a relative figure of GAPDH and the amount of respective gene expression. The formula used is the same as that used in Example 5.

[2] = system: human CYP24 gene promoter; assay: Dual luciferase assay, human CYP24 gene promoter in HOS cells; format: cell-based; settings: 10^−8 M, 24 hours
Protocol: (§1) In order to determine whether or not CDP expression increases VDR ligand-dependent transcription activity, a dual luciferase assay was performed using transient transfection in the same manner as Example 6. The reporter vector used in the dual luciferase assay was a pGL4 vector containing a sequence of human CYP24 gene promoter or a sequence of a human osteocalcin gene promoter upstream of the luciferase gene. The pGL4 vector was commercially obtained from Promega. Furthermore, a DNA sequence encoding a region of 4-427 amino acid residues for human VDR was introduced into a pTracerCMV2 vector (Invitrogen) in order to construct a human VDR expression plasmid. The expression vector for intracellular expression of the CDP protein was the pSPORT6-CDP vector used in Example 4. HOS cells used in the assay were cultured in DMEM medium containing 10% FBS and were passaged every two or three days. The culturing conditions were 37° C., 5% CO2. […] The medium was removed after 24 hours and after washing once in PBS(−), luciferase activity was determined by a Dual-Luciferase Assay kit (Promega) using a luminometer (Bethold Japan). The results were expressed as a “transcription activation” being the value represented by (firefly luciferase activity)/(renilla luciferase activity). […]

[3] = system: human osteocalcin gene promoter; assay: Dual luciferase assay, human osteocalcin gene promoter in HOS cells; format: cell-based; settings: 10^−8 M, 24 hours, endogenous VDR
Protocol: as §1

HOS-TE85 cells = assay: Differentiation of HOS-TE85 cells in culture; format: cell-based; settings: culturing in the presence of the compound
HeLa cells = assay: Differentiation of HeLa cells in culture; format: cell-based; settings: culturing in the presence of the compound
MCF-7 cells = assay: Differentiation of MCF-7 cells in culture; format: cell-based; settings: culturing in the presence of the compound
SaM-1 cells [4] = assay: Alkaline phosphatase staining of SaM-1 cells infected with Ad-CDP or Ad-mock; settings: 10^−8−10^−7 M, seven days
Protocol: The cells were used to inoculate a 24 well multi-well plate and cultured. When the cells reached 80% confluence, the medium was exchanged for a proliferation medium containing the virus, cultured overnight in order to infect the cells with the virus. Then the medium was exchange for a proliferation medium not containing a virus. […] The medium was exchanged every two days and cultured for seven days. After seven days culturing, alkaline phosphatase staining was performed.

[5] = biological target: T1, CCAAT Displacement Protein (CDP), endogenous protein in nuclear protein extracts (human, UniProt P39880 1-1505, limits assumed); assay: immunoprecipitation with anti-CDP antibody of the glutathione eluate of GST-VDR-bound HOS nuclear proteins (with 1,25(OH)2D3); western blot
T1 construct: Endogenous protein of nuclear extracts from HOS (human osteoblast cell strain), HeLa or Caco-2 cells; also called CUTL1; CUX
T1 sequence (P39880 whole entry): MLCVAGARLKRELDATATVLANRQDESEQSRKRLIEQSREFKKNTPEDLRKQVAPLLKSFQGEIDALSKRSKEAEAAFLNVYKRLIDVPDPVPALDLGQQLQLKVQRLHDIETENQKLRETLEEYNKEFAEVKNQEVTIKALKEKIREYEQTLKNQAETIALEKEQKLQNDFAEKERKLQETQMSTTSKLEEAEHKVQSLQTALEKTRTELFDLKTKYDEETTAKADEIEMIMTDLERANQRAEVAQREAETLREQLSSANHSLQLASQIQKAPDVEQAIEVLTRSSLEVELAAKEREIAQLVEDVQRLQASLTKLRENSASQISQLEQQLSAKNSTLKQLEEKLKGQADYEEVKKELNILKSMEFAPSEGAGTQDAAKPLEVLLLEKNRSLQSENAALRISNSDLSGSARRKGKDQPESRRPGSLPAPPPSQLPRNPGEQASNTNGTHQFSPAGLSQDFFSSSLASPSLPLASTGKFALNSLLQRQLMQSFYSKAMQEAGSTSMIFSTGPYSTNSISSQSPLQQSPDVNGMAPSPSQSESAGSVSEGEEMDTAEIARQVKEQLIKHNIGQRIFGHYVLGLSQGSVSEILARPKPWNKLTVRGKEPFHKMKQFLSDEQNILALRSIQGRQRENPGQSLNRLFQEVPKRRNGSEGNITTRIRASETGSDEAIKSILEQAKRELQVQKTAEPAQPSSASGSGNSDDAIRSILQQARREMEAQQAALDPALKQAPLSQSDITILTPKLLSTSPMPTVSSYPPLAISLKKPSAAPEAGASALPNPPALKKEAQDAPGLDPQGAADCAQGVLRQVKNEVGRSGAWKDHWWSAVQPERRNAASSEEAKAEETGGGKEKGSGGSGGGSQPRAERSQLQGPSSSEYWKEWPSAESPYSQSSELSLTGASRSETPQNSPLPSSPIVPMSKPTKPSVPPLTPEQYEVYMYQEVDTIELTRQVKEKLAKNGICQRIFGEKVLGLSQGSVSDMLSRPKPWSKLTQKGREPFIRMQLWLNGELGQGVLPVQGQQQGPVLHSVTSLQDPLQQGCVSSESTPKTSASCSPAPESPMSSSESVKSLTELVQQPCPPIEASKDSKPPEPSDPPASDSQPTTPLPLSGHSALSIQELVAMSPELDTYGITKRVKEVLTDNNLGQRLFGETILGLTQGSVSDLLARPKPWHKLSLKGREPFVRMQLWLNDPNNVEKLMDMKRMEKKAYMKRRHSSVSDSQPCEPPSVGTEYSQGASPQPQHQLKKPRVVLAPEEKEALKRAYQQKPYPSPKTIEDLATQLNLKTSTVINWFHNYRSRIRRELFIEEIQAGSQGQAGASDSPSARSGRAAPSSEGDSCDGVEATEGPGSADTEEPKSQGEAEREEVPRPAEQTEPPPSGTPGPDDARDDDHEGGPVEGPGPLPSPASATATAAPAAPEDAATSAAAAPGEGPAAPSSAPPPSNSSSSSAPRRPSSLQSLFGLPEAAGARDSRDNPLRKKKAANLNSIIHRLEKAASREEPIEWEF

Question: Which “gene expression of CDP” value (SaM-1 cells [1]) does the source give for `C=C1/C(=C\C=C2/CCC[C@]3(C)[C@@H]([C@H](C)CCCC(C)(C)O)CC[C@@H]23)C[C@@H](O)C[C@@H]1O` [1,25 (OH)2D3, 1α,25-dihydroxyvitamin D3] here?
Answer: increase

Question: And the “gene expression of osteocalcin” value (SaM-1 cells [1])?
Answer: increase

Question: And the “gene expression of CYP24” value (HOS cells)?
Answer: increased

Question: What about the “gene expression of alkaline phosphatase (ALP)” value (HOS cells) of the same molecule?
Answer: increased

Question: What about the “gene expression of osteocalcin” value (HOS cells) of the same molecule?
Answer: increased

Question: And the “VDR-mediated transcription activation of a human CYP24 promoter” value [2]?
Answer: increases

Question: What about the “VDR-mediated transcription activation of a human CYP24 promoter when CDP is expressed” value ([2]; pSPORT6-CDP co-transfected) of the same molecule?
Answer: further increased when CDP is expressed

Question: And the “VDR-mediated transcription activation of a human osteocalcin promoter” value [3]?
Answer: increases

Question: What about the “VDR-mediated transcription activation of a human osteocalcin promoter when CDP is expressed” value ([3]; pSPORT6-CDP co-transfected) of the same molecule?
Answer: further increased when CDP is expressed

Question: And the cell differentiation (HOS-TE85 cells)?
Answer: differentiate

Question: And the cell differentiation (HeLa cells)?
Answer: this type of action was not seen

Question: And the cell differentiation (MCF-7 cells)?
Answer: this type of action was not seen

Question: And the “number of alkaline phosphatase-positive cells” value (SaM-1 cells [4]; Ad-CDP group (CDP over-expressed))?
Answer: conspicuously higher increase in the number of alkaline phosphatase-positive cells

Question: And the “number of alkaline phosphatase-positive cells” value (SaM-1 cells [4]; Ad-mock group)?
Answer: increase in the number of alkaline phosphatase-positive cells

B1: TRAP100, endogenous protein in nuclear protein extracts (other, human, UniProt O75448 1-989, looked up)
chain: MKVVNLKQAILQAWKERWSDYQWAINMKKFFPKGATWDILNLADALLEQAMIGPSPNPLILSYLKYAISSQMVSYSSVLTAISKFDDFSRDLCVQALLDIMDMFCDRLSCHGKAEECIGLCRALLSALHWLLRCTAASAERLREGLEAGTPAAGEKQLAMCLQRLEKTLSSTKNRALLHIAKLEEASSWTAIEHSLLKLGEILANLSNPQLRSQAEQCGTLIRSIPTMLSVHAEQMHKTGFPTVHAVILLEGTMNLTGETQSLVEQLTMVKRMQHIPTPLFVLEIWKACFVGLIESPEGTEELKWTAFTFLKIPQVLVKLKKYSHGDKDFTEDVNCAFEFLLKLTPLLDKADQRCNCDCTNFLLQECGKQGLLSEASVNNLMAKRKADREHAPQQKSGENANIQPNIQLILRAEPTVTNILKTMDADHSKSPEGLLGVLGHMLSGKSLDLLLAAAAATGKLKSFARKFINLNEFTTYGSEESTKPASVRALLFDISFLMLCHVAQTYGSEVILSESRTGAEVPFFETWMQTCMPEEGKILNPDHPCFRPDSTKVESLVALLNNSSEMKLVQMKWHEACLSISAAILEILNAWENGVLAFESIQKITDNIKGKVCSLAVCAVAWLVAHVRMLGLDEREKSLQMIRQLAGPLFSENTLQFYNERVVIMNSILERMCADVLQQTATQIKFPSTGVDTMPYWNLLPPKRPIKEVLTDIFAKVLEKGWVDSRSIHIFDTLLHMGGVYWFCNNLIKELLKETRKEHTLRAVELLYSIFCLDMQQVTLVLLGHILPGLLTDSSKWHSLMDPPGTALAKLAVWCALSSYSSHKGQASTRQKKRHREDIEDYISLFPLDDVQPSKLMRLLSSNEDDANILSSPTDRSMSSSLSASQLHTVNMRDPLNRVLANLFLLISSILGSRTAGPHTQFVQWFMEECVDCLEQGGRGSVLQFMPFTTVSELVKVSAMSSPKVVLAITDLSLPLGRQVAAKAIAAL
Question: Does B1 bind [5]?
Answer: no binding
